Data set [1] deals with cultured adult mouse cochlea. Briefly: Hair cell regeneration in cultured adult wild-type mouse cochlea, reprogramming followed by ad-Atoh1 infection. The note with it: for reprogramming and regeneration of hair cells with another HDAC inhibitor in the cocktail instead of VPA: TSA 82.5 nM, SAHA 2 μM, Belinostat 1 μM with LiCl, FSK, siFIR, siMxi1, after Ad-Atoh1 infection. It is filed as cell-based. How it is done: Different from the neonatal cochlear culture method, in which the cochleae were disassociated from the bone, adult mouse whole cochleae (4-6 weeks old) were dissected with the bone attached. The bulla was first removed from the skull and dipped in 75% ethanol for 3 minutes before being placed in HBSS. The vestibular region was also removed. Under a dissecting microscope, the middle ear, vessels and the debris were removed from the bulla. The bone covering the apical turn was removed, and round window and oval window membranes were opened to allow media exchange with the cochlear fluids. The ligament portion and Reissner's membrane at each end of the cochlea were also removed to facilitate the access of medium to the sensory epithelial region. The cochleae were maintained in DMEM/F12 (Invitrogen) supplemented with N2 and B27 (both from Invitrogen) for 14-18 days. Ad-Atoh1 ad-Atoh1-mCherry adenoviruses were purchased from the SignaGen Laboratories, Rockville, MD, with titers of 6×10^10 pfu/ml.
In the rtTA/tet-Myc/tet-NICD mouse model, cochleae were treated with Dox (Sigma, 2 μg/ml final concentration); In the Sox2/tdT/rtTA/tet-Myc/tet-NICD mouse model, cochleae were treated with Dox (Sigma, 2 μg/ml final concentration) and 4-Hydroxytamoxifen (Tm, Sigma) (20 ng/ml); in the rtTA/tet-Myc and rtTA/tet-Myc/Atoh1-GFP mouse models, cochleae were treated with Dox (Sigma, 2 μg/ml final concentration) and VPA (2 mM); in the Sox2/tdT/rtTA/tet-Myc mouse model, cochleae were treated with 4-Hydroxytamoxifen (20 ng/ml), Dox (Sigma, 2 μg/ml) and VPA (Sigma, 2 mM); in the rtTA/tet-NICD mouse model, cochleae were treated with Dox (Sigma, 2 μg/ml final concentration), LiCl (Sigma, 8 mM), FSK (Tocris Bioscience, 20 μM), siFIR (Santa Cruz Bio-technology, 0.02 μM), and siMxi1 (Santa Cruz Bio-technology, 0.02 μM); in the Sox2/tdT/rtTA/tet-NICD mouse model, cochleae were treated with 4-Hydroxytamoxifen (20 ng/ml), Dox (Sigma, 2 μg/ml final concentration), LiCl (8 mM), Forskolin (FSK) (20 μM), siFIR (Puf 60, Gene ID: 67959) […], and siMxi1 (Gene ID: 17859) (0.02 μM); in the Atoh1-GFP mouse model, cochleae were treated with VPA (2 mM), LiCl (8 mM), FSK […], siFIR (0.02 μM), and siMxi1 (0.02 μM) for 4 days, followed by ad-Atoh1 (6×10^10 pfu/ml) infection overnight. siRNAs were delivered following the manufacturer's instructions (Polyplus-transfection; 89129-920). In cultured adult mouse cochleae, they were treated with HDAC inhibitor, Belinostat (1 μM, Medchemexpress), Trichostatin A (TSA)(82.5 nM, Medchemexpress), Vorinostat (SAHA)(2 μM; Medchemexpress), and Myc siRNA Fbxw7 (0.02 μM, Santa Cruz Biotechnology). The controls were cultured adult cochleae of the same genotype treated with vehicle (sterile water with 0.1% DMSO) plus ad-Atoh1. […]

Data set [2] has as its system adult wild-type mouse utricle. As to the kind of experiment: Neomycin damage of cultured adult mouse utricle. The data set is classed as cell-based. The note with it: neomycin 4 mM for 5 days, vs untreated utricles. How it is done: Whole utricles were dissected from 4-week-old mice and cultured free-floating. Otoconia were removed using a gentle stream of phosphate-buffered saline (PBS) ejected from a 25G needle and syringe. Utricles were cultured in 1000 μL of media in untreated 24-well flat bottom plates. All cultures were maintained at 37° C. in 5% CO2/95% air.
Culture media consisted of Dulbecco's Modified Eagle's Medium/F12 (DMEM/F12, Invitrogen) with B27 and N2 supplement. Neomycin sulfate stock (10 mg/mL in 0.9% NaCl, from Sigma Aldrich) was diluted in culture media to 4 mM. Valproic acid (VPA) from Sigma was included at 2 mM, and siRNAs from Santa Cruz were included at 0.02 μM.

The values that follow come from US20240100079A1, “METHODS AND COMPOSITIONS FOR REGENERATING HAIR CELLS IN THE INNER EAR OF ADULT MAMMALS” (Massachusetts Eye and Ear Infirmary, priority 2021, published 2024).

With `O=C(/C=C/c1cccc(S(=O)(=O)Nc2ccccc2)c1)NO` [Belinostat, belinostat], in data set [1], the “reprogramming and regeneration of hair cells with another HDAC inhibitor in the cocktail instead of VPA” value is “sufficient to induce reprogramming and efficient regeneration of hair cells”.

For `O=C(CCCCCCC(=O)Nc1ccccc1)NO` [SAHA, N-Hydroxy-N′-phenyloctanediamide], the “reprogramming and regeneration of hair cells with another HDAC inhibitor in the cocktail instead of VPA” value in data set [1] is “sufficient to induce reprogramming and efficient regeneration of hair cells”. Same read-out and setting: next, `CC(/C=C/C(=O)NO)=C\[C@@H](C)C(=O)c1ccc(N(C)C)cc1` [TSA, (2E,4E,6R)-7-(4-(Dimethylamino)phenyl)-N-hydroxy-4,6-dimethyl-7-oxo-2,4-heptadienamide]: “sufficient to induce reprogramming and efficient regeneration of hair cells”. Turning to `CCCC(CCC)C(=O)[O-].[Na+]` [VPA, Sodium 2-propylpentanoate], in data set [1] (cultured adult WT cochlea, treatment followed by Ad-Atoh1 infection (FIG. 7B)), the “HC (MYO7A+) regeneration” value is given as “did not lead to HC (MYO7A)”. As for Neomycin sulfate, the “utricle hair cells (MYO7A) after neomycin” value in data set [2] is given as “decreased total numbers of utricle HC”; in data set [2] (listed as Neomycin) it was “loss of hair cells”.
